Measurements: US6001809A, “Inhibitors of leukocyte adhesion” (Elan Pharmaceuticals, Inc., priority 1995, dated 1999)
Where two headings read alike, the source gives them in different places. Bridge positions count the residues as written; N and C are the ends. Square brackets hold non-standard residues; d marks the D form. Ends that are not written are not given here. Peptide text beside a SMILES is read from it. I, II: the chains in the order shown.

Experiments:
[1] = target: T1, VLA-4 integrin interaction with VCAM-1 (Homo sapiens, UniProt P05556+P13612); assay: Jurkat interaction with soluble VCAM-1 (sVCAM-1-IgG), FACS assay; format: cell-based
T1 construct: endogenous in cells; host or cells: Jurkat cells (VLA-4)
T1 sequence (P13612 34-1032): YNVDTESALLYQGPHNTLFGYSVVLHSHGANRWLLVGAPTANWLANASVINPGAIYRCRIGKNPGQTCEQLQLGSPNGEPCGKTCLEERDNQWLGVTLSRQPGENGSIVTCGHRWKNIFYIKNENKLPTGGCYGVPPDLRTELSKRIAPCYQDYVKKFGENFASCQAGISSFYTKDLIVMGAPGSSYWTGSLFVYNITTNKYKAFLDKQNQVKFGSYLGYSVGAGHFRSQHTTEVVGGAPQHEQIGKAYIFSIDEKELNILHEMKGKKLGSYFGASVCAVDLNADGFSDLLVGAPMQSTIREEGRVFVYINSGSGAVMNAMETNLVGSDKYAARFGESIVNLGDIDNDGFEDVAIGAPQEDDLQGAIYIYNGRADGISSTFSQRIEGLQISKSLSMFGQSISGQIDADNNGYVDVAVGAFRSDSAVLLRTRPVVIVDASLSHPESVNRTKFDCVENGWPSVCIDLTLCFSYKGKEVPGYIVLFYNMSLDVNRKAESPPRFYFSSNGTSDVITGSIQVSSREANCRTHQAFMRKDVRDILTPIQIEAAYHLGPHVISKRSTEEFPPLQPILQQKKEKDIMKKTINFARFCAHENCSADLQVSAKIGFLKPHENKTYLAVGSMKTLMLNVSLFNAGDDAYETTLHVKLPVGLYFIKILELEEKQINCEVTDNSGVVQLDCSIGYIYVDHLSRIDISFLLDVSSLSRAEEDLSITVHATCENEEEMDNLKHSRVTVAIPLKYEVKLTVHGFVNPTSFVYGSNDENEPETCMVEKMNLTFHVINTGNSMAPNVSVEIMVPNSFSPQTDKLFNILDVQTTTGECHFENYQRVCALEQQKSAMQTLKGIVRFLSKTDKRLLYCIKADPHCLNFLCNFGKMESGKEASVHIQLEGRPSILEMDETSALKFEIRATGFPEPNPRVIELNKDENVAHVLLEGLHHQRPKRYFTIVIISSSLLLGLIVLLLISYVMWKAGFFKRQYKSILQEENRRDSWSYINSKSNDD
T1 sequence (P05556 21-798): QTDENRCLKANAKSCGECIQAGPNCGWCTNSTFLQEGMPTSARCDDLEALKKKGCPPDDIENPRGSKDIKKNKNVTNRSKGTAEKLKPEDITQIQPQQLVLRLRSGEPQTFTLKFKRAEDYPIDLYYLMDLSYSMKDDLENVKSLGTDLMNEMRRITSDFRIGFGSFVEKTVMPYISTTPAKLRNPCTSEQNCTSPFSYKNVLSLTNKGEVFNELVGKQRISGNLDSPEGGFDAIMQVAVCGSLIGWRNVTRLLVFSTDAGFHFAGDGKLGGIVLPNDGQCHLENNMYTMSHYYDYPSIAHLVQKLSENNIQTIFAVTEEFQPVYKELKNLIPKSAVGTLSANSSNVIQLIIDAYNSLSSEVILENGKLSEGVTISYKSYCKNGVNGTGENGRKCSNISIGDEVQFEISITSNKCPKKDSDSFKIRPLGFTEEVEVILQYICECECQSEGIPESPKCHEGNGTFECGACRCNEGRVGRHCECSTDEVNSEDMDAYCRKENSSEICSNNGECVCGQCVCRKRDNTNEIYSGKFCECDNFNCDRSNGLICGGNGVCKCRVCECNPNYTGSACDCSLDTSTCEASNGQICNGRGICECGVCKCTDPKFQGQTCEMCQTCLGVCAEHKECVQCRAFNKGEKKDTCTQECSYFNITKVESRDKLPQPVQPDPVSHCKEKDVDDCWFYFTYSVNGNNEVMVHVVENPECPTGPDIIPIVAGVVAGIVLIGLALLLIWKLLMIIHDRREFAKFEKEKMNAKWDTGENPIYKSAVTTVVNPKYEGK
Description: VCAM-1 was expressed as a soluble fusion protein. The construct expressed the seven extracellular domains of VCAM-1 on the N-terminus, and the human IgG1 heavy chain constant region on the C-terminus. Interaction of the soluble construct with Jurkat cells was monitored by standard FACS analysis, using a fluorescently labeled antibody directed against the construct's human IgG tail as a marker.
The activity of VLA-4 can be regulated. 15/7 is a monoclonal antibody that recognizes an activated conformation of VLA-4 and locks the molecule in the active state, thereby enhancing VLA-4-mediated cell adhesion.
Peptides of different length, and with various amino acid substitutions were synthesized based on the sequence of the CDR3 region of the antibody 21/6 (EGYYGNYGVYA) (SEQ ID No. 4). The peptides were then tested for their ability to inhibit Jurkat interaction with sVCAM-1-IgG in the FACS assay described in Example 6. IC50 values were determined for each peptide using this assay.

VLA-4 integrin = target: T2, VLA-4 integrin (Homo sapiens, UniProt P05556+P13612); assay: Adhesion of Jurkat cells to peptide-BSA conjugates; format: cell-based; settings: peptide conjugated to carrier protein, coated on plastic at 3 μg/mL; FIG. 1
T2 construct: endogenous in cells; host or cells: Jurkat cells
T2 sequence (P13612 34-1032): as the sequence (P13612 34-1032) above
T2 sequence (P05556 21-798): as the sequence (P05556 21-798) above
Method: The peptide used in this example was synthesized based on the sequence of the anti-α4 integrin antibody 21/6 (CGGEGYYGNYGVYA, SEQ ID No. 1). In this example the peptide was conjugated to a large carrier protein via the linker region that was synthesized as part of the peptide itself (in italics). The conjugated peptide was then coated onto plastic, and the ability of the conjugate to support cell adhesion was tested. This method is based on a report by Wayner and Kovach^40.
As a positive control, the fibronectin peptide described by Wayner was synthesized, conjugated to carrier protein, and tested for cell adhesion in parallel with SEQ ID NO. 1 (CGGEILDVPST, SEQ ID No. 2). Both peptide conjugates were exposed to the plastic at a concentration of 3 μg/mL. […] Adhesion was not affected by an antibody against β2 integrin (IOT18), a distinct cell adhesion molecule that is also expressed on the surface of Jurkat cells. Thus, like peptide SEQ ID NO. 2, peptide SEQ ID NO. 1 interacts with Jurkat in an α4 integrin-specific fashion.

[2] = per Example 6: inhibition of Jurkat interaction with sVCAM-1-IgG, FACS, Mn+2 and 15/7 present, read-out: IC50

| Compound | IC50 [1] [µM] | other results |
| --- | --- | --- |
| C[C@H](N)C(=O)N[C@H](Cc1ccc(O)cc1)C(=O)N[C@@H](Cc1ccc(O)cc1)C(=O)N[C@@H](CCC(=O)O)C(=O)N[C@@H](CC(N)=O)C(=O)N[C@@H](CSSC[C@H](NC(=O)[C@H](CC(N)=O)NC(=O)[C@H](CCC(=O)O)NC(=O)[C@H](Cc1ccc(O)cc1)NC(=O)[C@@H](Cc1ccc(O)cc1)NC(=O)[C@H](C)N)C(=O)O)C(=O)O [SEQ ID No. 154, AyYENC AyYENC] (I: H-A[dY]YENC-OH / II: H-A[dY]YENC-OH; disulfide I:6-II:6) | ≤ 50 |  |
| NC(=O)C[C@@H]1NC(=O)CNC(=O)[C@H](Cc2ccccc2)NC(=O)[C@@H](N)CSSC[C@@H](C(=O)O)NC(=O)[C@H](CO)NC(=O)[C@H](Cc2c[nH]cn2)NC(=O)[C@H](CCC(=O)O)NC1=O [SEQ ID No. 32, CFGNEHSC] (H-CFGNEHSC-OH; disulfide 1-8) | ≤ 50 |  |
| C[C@H](N)C(=O)N[C@H](Cc1ccc(O)cc1)C(=O)N[C@@H](Cc1ccc(O)cc1)C(=O)N[C@@H](CCC(=O)O)C(=O)N[C@@H](C)C(=O)N[C@@H](CSSC[C@H](NC(=O)[C@H](C)NC(=O)[C@H](CCC(=O)O)NC(=O)[C@H](Cc1ccc(O)cc1)NC(=O)[C@@H](Cc1ccc(O)cc1)NC(=O)[C@H](C)N)C(=O)O)C(=O)O [SEQ ID No. 140, AyYEAC AyYEAC] (I: H-A[dY]YEAC-OH / II: H-A[dY]YEAC-OH; disulfide I:6-II:6) | ≤ 50 |  |
| CC[C@H](C)[C@@H]1NC(=O)[C@H](CCC(N)=O)NC(=O)[C@H]([C@@H](C)O)NC(=O)[C@H](CCCNC(=N)N)NC(=O)[C@@H](N)CSSC[C@@H](C(=O)O)NC(=O)[C@H](CO)NC(=O)[C@H](CC(=O)O)NC1=O [SEQ ID No. 35, CRTQIDSC] (H-CRTQIDSC-OH; disulfide 1-8) |  | IC50 [1, 2]: ≤ 50 µM |
| Ac-EGYYGNYGVY [SEQ ID No. 22, [Ac]EGYYGNYGVY] | ≤ 50 |  |
| Ac-EGYYGNYGVYA [SEQ ID No. 4, [Ac]EGYYGNYGVYA] |  | IC50 [1, 2]: ≤ 50 µM |
| EGYYGNYGVY [SEQ ID No. 17, EGYYGNYGVY] | ≤ 50 |  |
| C[C@H](N)C(=O)N[C@H](Cc1ccc(O)cc1)C(=O)N[C@@H](Cc1ccc(O)cc1)C(=O)N[C@@H](CCC(=O)O)C(=O)N[C@@H](C)C(=O)N[C@@H](CS)C(=O)O [SEQ ID No. 133, AyYEAC] (H-A[dY]YEAC-OH) | ≤ 50 |  |
| NC(=O)CC[C@@H]1NC(=O)CNC(=O)[C@H](Cc2ccc(O)cc2)NC(=O)[C@H](Cc2ccc(O)cc2)NC(=O)CSC[C@@H](C(=O)O)NC1=O [SEQ ID No. 52, [Ac]YYGQC] ({CH2CO}-YYGQC-OH; thioether N-5) | ≤ 50 |  |
| C[C@H](N)C(=O)N[C@@H](Cc1ccc(O)cc1)C(=O)N[C@@H](Cc1ccc(O)cc1)C(=O)NCC(=O)N[C@@H](Cc1ccc(O)cc1)C(=O)N[C@@H](CC(N)=O)C(=O)N[C@@H](CSSC[C@H](NC(=O)[C@H](CC(N)=O)NC(=O)[C@H](Cc1ccc(O)cc1)NC(=O)CNC(=O)[C@H](Cc1ccc(O)cc1)NC(=O)[C@H](Cc1ccc(O)cc1)NC(=O)[C@H](C)N)C(=O)O)C(=O)O [SEQ ID No. 144, AYYGYNC AYYGYNC] (I: H-AYYGYNC-OH / II: H-AYYGYNC-OH; disulfide I:7-II:7) | ≤ 50 |  |
| CC(C)[C@H]1NC(=O)CSC[C@@H](C(=O)O)NC(=O)[C@H](CC(N)=O)NC(=O)CNC(=O)[C@H](Cc2ccccc2)NC1=O [SEQ ID No. 96, [Ac]vFGNC] ({CH2CO}-[dV]FGNC-OH; thioether N-5) | ≤ 50 |  |
| C[C@H](N)C(=O)N[C@@H](Cc1ccc(O)cc1)C(=O)N[C@@H](Cc1ccc(O)cc1)C(=O)N[C@@H](CCC(=O)O)C(=O)N[C@@H](CC(N)=O)C(=O)N[C@@H](CSSC[C@H](NC(=O)[C@H](CC(N)=O)NC(=O)[C@H](CCC(=O)O)NC(=O)[C@H](Cc1ccc(O)cc1)NC(=O)[C@H](Cc1ccc(O)cc1)NC(=O)[C@H](C)N)C(=O)O)C(=O)O [SEQ ID No. 123, AYYENC AYYENC] (I: H-AYYENC-OH / II: H-AYYENC-OH; disulfide I:6-II:6) | ≤ 50 |  |
| Ac-EGYYGNYGVAA [SEQ ID No. 12, [Ac]EGYYGNYGVAA] | ≤ 50 |  |
| CGGEILDVPST [SEQ ID No. 2, fibronectin peptide described by Wayner, positive control, conjugated to carrier protein, reference compound] |  | adhesion of Jurkat cells to immobilized peptide conjugate (VLA-4 integrin): bound equally well |
| NC(=O)C[C@@H]1NC(=O)[C@H](CCC(=O)O)NC(=O)[C@H](Cc2ccc(O)cc2)NC(=O)[C@H](Cc2ccc(O)cc2)NC(=O)CSC[C@@H](C(=O)O)NC1=O [SEQ ID No. 60, [Ac]YYENC] ({CH2CO}-YYENC-OH; thioether N-5) | ≤ 50 |  |
| STLTMNPVSF [SEQ ID No. 40, STLTMNPVSF] | ≤ 50 |  |

| Compound | IC50 [1] [µM] | other results |
| --- | --- | --- |
| SYYENC [SEQ ID No. 124, SYYENC] | ≤ 50 |  |
| Ac-EGYYGNYGAYA [SEQ ID No. 42, [Ac]EGYYGNYGAYA] | ≤ 50 |  |
| C[C@@H]1NC(=O)CNC(=O)[C@H](Cc2ccc(O)cc2)NC(=O)[C@H](Cc2ccc(O)cc2)NC(=O)CSC[C@@H](C(=O)O)NC1=O [SEQ ID No. 54, [Ac]YYGAC] ({CH2CO}-YYGAC-OH; thioether N-5) | ≤ 50 |  |
| NC(=O)C[C@H](NC(=O)[C@H](CCC(=O)O)NC(=O)[C@H](Cc1ccc(O)cc1)NC(=O)[C@H](Cc1ccc(O)cc1)NC(=O)[C@@H](N)CO)C(=O)N[C@@H](CSSC[C@H](NC(=O)[C@H](CC(N)=O)NC(=O)[C@H](CCC(=O)O)NC(=O)[C@H](Cc1ccc(O)cc1)NC(=O)[C@H](Cc1ccc(O)cc1)NC(=O)[C@@H](N)CO)C(=O)O)C(=O)O [SEQ ID No. 125, SYYENC SYYENC] (I: H-SYYENC-OH / II: H-SYYENC-OH; disulfide I:6-II:6) | ≤ 50 |  |
| AYFGPC [SEQ ID No. 142, AYFGPC] | ≤ 50 |  |
| C[C@H](N)C(=O)N[C@@H](Cc1ccc(O)cc1)C(=O)N[C@@H](Cc1ccccc1)C(=O)NCC(=O)N1CCC[C@H]1C(=O)N[C@@H](CSSC[C@H](NC(=O)[C@@H]1CCCN1C(=O)CNC(=O)[C@H](Cc1ccccc1)NC(=O)[C@H](Cc1ccc(O)cc1)NC(=O)[C@H](C)N)C(=O)O)C(=O)O [SEQ ID No. 71, AYFGPC AYFGPC] (I: H-AYFGPC-OH / II: H-AYFGPC-OH; disulfide I:6-II:6) | ≤ 50 |  |
| Ac-EGYYGNYGAAA [SEQ ID No. 41, [Ac]EGYYGNYGAAA] | ≤ 50 |  |
| C[C@H](N)C(=O)N[C@H](Cc1ccc(O)cc1)C(=O)N[C@@H](Cc1ccc(O)cc1)C(=O)NCC(=O)N[C@@H](C)C(=O)N[C@@H](CSSC[C@H](NC(=O)[C@H](C)NC(=O)CNC(=O)[C@H](Cc1ccc(O)cc1)NC(=O)[C@@H](Cc1ccc(O)cc1)NC(=O)[C@H](C)N)C(=O)O)C(=O)O [SEQ ID No. 150, AyYGAC AyYGAC] (I: H-A[dY]YGAC-OH / II: H-A[dY]YGAC-OH; disulfide I:6-II:6) | ≤ 50 |  |
| CGGEGYYGNYGVYA [SEQ ID No. 1, peptide from anti-α4 integrin antibody 21/6 with CGG linker, conjugated to carrier protein] |  | adhesion of Jurkat cells to immobilized peptide conjugate (VLA-4 integrin): bound equally well |
| Ac-EGYYGAYGVYA [SEQ ID No. 9, [Ac]EGYYGAYGVYA] | ≤ 50 |  |
| Ac-EGYYGNAGVAA [SEQ ID No. 15, [Ac]EGYYGNAGVAA] | ≤ 50 |  |
| Ac-EGYYGNYGGYA [SEQ ID No. 43, [Ac]EGYYGNYGGYA] | ≤ 50 |  |
| CC(C)C[C@H]1NC(=O)CSC[C@@H](C(=O)O)NC(=O)[C@H](CC(N)=O)NC(=O)CNC(=O)[C@H](Cc2ccccc2)NC1=O [SEQ ID No. 94, [Ac]lFGNC] ({CH2CO}-[dL]FGNC-OH; thioether N-5) | ≤ 50 |  |
| Ac-YYGNYGVYA [SEQ ID No. 45, [Ac]YYGNYGVYA] | ≤ 50 |  |
| NC(=O)C[C@@H]1NC(=O)CNC(=O)[C@H](Cc2ccccc2)NC(=O)CNC(=O)[C@@H](N)CSSC[C@@H](C(=O)O)NC(=O)[C@H](Cc2ccc(O)cc2)NC(=O)[C@H](CO)NC(=O)[C@H](Cc2c[nH]cn2)NC(=O)[C@H](CCC(=O)O)NC1=O [SEQ ID No. 31, CGFGNEHSYC] (H-CGFGNEHSYC-OH; disulfide 1-10) | ≤ 50 |  |
| NC(=O)C[C@@H]1NC(=O)[C@H](Cc2ccc(O)cc2)NC(=O)CNC(=O)[C@H](Cc2ccc(O)cc2)NC(=O)[C@H](Cc2ccc(O)cc2)NC(=O)CSC[C@@H](C(=O)O)NC1=O [SEQ ID No. 62, [Ac]YYGYNC] ({CH2CO}-YYGYNC-OH; thioether N-6) | ≤ 50 |  |
